Source: patent US6914064B2, “1,4-Disubstituted piperazine derivatives useful as uro-selective α1-adrenoceptor blockers” (Ranbaxy Laboratories Limited, priority 2000, dated 2005)
pKi: −log10 of the molar value.

Experiments:
[1] = target: T1, α1A adrenoceptor (prostate) (Rattus norvegicus, UniProt P43140); experiment: In vitro functional study, antagonism of phenylepinephrine-induced contraction of prostate; type: biochemical; conditions: for Kb: prostate, phenylepinephrine, tested compound at 0.1, 1 and 10 mM, read-out: α Adrenoceptor Subtype (pKB) α1A (converted)
T1 construct: from tissue; host or cells: isolated prostate tissue
T1 sequence (P43140 1-466): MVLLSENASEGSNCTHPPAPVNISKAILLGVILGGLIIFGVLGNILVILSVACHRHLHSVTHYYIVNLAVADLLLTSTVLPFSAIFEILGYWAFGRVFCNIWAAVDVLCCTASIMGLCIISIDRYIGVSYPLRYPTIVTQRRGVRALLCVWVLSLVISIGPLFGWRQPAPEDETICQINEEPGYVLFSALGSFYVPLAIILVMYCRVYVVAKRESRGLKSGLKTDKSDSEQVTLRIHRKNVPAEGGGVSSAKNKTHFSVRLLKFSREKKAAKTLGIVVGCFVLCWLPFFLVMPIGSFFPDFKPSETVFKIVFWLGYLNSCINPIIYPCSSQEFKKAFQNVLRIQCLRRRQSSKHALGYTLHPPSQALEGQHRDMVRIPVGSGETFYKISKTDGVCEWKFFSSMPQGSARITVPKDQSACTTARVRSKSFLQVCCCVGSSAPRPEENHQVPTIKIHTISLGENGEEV
Text: (§1) In order to study selectivity of action of these compounds towards different α-adrenoceptor subtypes, the ability of these compounds to antagonise α1-adrenoceptor agonist induced contractile response on aorta (α1Dprostate (α1A and spleen (α1B was studied. Aorta and spleen tissues were isolated from urethane anaesthetised (1.5 gm/kg) male wistar rats. Isolated tissues were mounted in organ bath containing Krebs Henseleit buffer of following composition (mM): NaCl 118; KCl 4.7; CaCl2 2.5; MgSO4. 7H2O 1.2; NaHCO3 25; KH2PO41.2; glucose 11.5. Buffer was maintained at 37° C. and aereated with a mixture of 95% O2 and 5% CO2. A resting tension of 2 g (aorta) or 1 g (spleen and prostate)was applied to tissues. Contractile response was monitored using a force displacement transducer and recorded on chart recorders. Tissues were allowed to equilibrate for 2 hours. At the end of equilibration period, concentration response curves to norepinephrine (aorta) and phenylepinephrine (spleen and prostate) were obtained in absence and presence of tested compound (at concentration of 0.1,1 and 10 mM). Antagonist affinity was calculated and expressed as pKB vales in Table II.

[2] = target: T2, α1A adrenoceptor (Rattus norvegicus, UniProt P43140); experiment: Receptor binding assay, displacement of [3H]prazosin, rat submaxillary membranes; conditions: for pKi: [3H]prazosin displacement, rat submaxillary membranes, read-out: α1A (Rat submaxillary) Ki; for Selectivity α1B/α1A: ratio of Ki α1B (rat liver) / α1A (rat submaxillary)
T2 construct: from tissue; host or cells: rat submaxillary gland membranes
T2 sequence (P43140 1-466): T1 sequence (P43140 1-466)
Description: Receptor binding assays were performed using native α-adrenoceptors.
(§2) Submaxillary glands were isolated immediately after sacrifice. The liver was perfused with buffer (Tris HCl 50 mM, NaCl 100 mM, 10 mM EDTA pH 7.4). The tissues were homogenised in 10 volumes of buffer (Tris HCl 50 mM, NaCl 100 mM, EDTA 10 mM, pH 7.4). The homogenate was filtered through two layers of wet gauze and filtrate was centrifuged at 500 g for 10 min. The supernatant was subsequently centrifuged at 40,000 g for 45 min. The pellet thus obtained was resuspended in the same volume of assay buffer (Tris HCl 50 mM, EDTA 5 mM, pH 7.4) and were stored at −70° C. until the time of assay.
(§3) The membrane homogenates (150-250 μg protein) were incubated in 250 μl of assay buffer (Tris HCl 50 mM, EDTA 5 mM, pH 7.4) at 24-25° C. for 1 h. Non-specific binding was determined in the presence of 300 nM prazosin. The incubation was terminated by vacuum filtration over GF/B fibre filters. The filters were then washed with ice cold 50 mM Tris HCl buffer (pH 7.4). The filtermats were dried and bound radioactivity retained on filters was counted.The IC50 & Kd were estimated by using the non-linear curve fitting program using G Pad Prism software.

[3] = target: T3, α1B adrenoceptor (Rattus norvegicus, UniProt P15823); experiment: Receptor binding assay, displacement of [3H]prazosin, rat liver membranes; conditions: [3H]prazosin displacement, rat liver membranes; read-out: α1B (Rat liver) Ki
T3 construct: from tissue; host or cells: rat liver membranes
T3 sequence (P15823 1-515): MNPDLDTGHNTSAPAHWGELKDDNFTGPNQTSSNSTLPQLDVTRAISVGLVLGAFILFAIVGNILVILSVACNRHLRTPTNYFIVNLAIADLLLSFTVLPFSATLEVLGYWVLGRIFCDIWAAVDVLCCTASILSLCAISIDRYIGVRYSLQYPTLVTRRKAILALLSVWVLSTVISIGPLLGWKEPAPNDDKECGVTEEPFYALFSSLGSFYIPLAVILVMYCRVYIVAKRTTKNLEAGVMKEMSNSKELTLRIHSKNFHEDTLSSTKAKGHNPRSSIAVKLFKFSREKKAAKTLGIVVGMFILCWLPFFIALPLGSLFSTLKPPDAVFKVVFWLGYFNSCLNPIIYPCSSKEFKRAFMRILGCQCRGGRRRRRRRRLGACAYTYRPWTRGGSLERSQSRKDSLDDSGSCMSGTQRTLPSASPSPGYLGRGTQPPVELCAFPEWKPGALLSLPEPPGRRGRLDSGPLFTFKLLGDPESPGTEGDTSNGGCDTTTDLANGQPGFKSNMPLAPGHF
Description: Receptor binding assays were performed using native α-adrenoceptors. The affinity of different compounds for α1A and α1B adrenoceptor subtypes was evaluated by studying their ability to displace specific [^3H]prazosin binding from the membranes of rat submaxillary and liver respectively (Michel et al, Br J Pharmacol, 98, 883-889 (1989)). The binding assays were performed according to U'Prichard et al. (Eur J Pharmacol, 50:87-89 (1978)) with minor modifications.
as §2
as §3, with “software. The value of inhibition constant Ki was calculated from competitive binding studies by using Cheng & Prusoff equation (Cheng & Prusoff, Biochem Pharmacol, 1973,22: 3099-3108), Ki=IC50/(1+L/Kd) where L is the concentration of [^3H]prazosin used in the particular experiment (Table I).” for “software.”

[4] = target: T4, α1D adrenoceptor (aorta) (Rattus norvegicus, UniProt P23944); experiment: In vitro functional study, antagonism of norepinephrine-induced contraction of aorta; type: biochemical; conditions: tested compound at 0.1, 1 and 10 mM, read-out: α Adrenoceptor Subtype (pKB) α1D (converted)
T4 construct: Isolated tissues were mounted in organ bath containing Krebs Henseleit buffer; from tissue; host or cells: isolated aorta of male wistar rats
T4 sequence (P23944 1-561): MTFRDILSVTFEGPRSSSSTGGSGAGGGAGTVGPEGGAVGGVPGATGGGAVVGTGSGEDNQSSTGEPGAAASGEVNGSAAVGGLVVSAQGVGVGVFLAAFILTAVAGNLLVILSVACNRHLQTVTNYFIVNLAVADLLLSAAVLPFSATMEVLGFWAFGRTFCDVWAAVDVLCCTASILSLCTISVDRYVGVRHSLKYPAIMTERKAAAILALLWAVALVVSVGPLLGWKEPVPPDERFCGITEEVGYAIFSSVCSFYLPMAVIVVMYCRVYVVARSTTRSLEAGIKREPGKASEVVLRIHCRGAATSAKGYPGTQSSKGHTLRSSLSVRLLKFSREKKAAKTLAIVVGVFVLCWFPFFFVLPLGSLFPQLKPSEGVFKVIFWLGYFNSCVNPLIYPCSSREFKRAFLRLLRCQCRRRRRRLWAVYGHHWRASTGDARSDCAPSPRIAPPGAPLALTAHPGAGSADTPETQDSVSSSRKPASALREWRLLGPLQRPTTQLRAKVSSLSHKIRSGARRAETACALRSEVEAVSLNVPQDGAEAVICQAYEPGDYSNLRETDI
Text: as §1

[5] = target: T5, α1B adrenoceptor (spleen) (Rattus norvegicus, UniProt P15823); experiment: In vitro functional study, antagonism of phenylepinephrine-induced contraction of spleen; type: biochemical; conditions: tested compound at 0.1, 1 and 10 mM, read-out: α Adrenoceptor Subtype (pKB) α1B (converted)
T5 construct: Isolated tissues were mounted in organ bath containing Krebs Henseleit buffer; from tissue; host or cells: isolated spleen of male wistar rats
T5 sequence (P15823 1-515): T3 sequence (P15823 1-515)
Text: as §1

[6] = functional assays, from pKB values

Structure (SMILES) | Selectivity α1A/α1B [1, 6] | Kb [1] [µM] | melting point [°C] | pKi [2] | Selectivity α1B/α1A [2] | pKi [3] | Kb [4] [µM] | Kb [5] [µM] | Selectivity α1A/α1D [1, 6]
COc1ccccc1N1CCN(C(C)CCN2C(=O)C3CC=CCC3C2=O)CC1.Cl (stereo not shown) [Compound 29, 2-[3-{4-(2-Methoxyphenyl)piperazin-1-yl}-3-methylpropyl]-3a,4,7,7a-tetrahydro-1H-isoindole-1,3(2H)-dione hydrochloride] | 18 | 0.0871 | 219 to 220 | 8.46 | 205 | 6.15 | 0.0339 | 1.58 | 
CCCCCCOc1ccccc1N1CCN(CCCN2C(=O)C3CC=CCC3C2=O)CC1.Cl (stereo not shown) [Compound 25, 2-[3-{4-(2-n-Hexyloxyphenyl)piperazin-1-yl}propyl]-3a,4,7,7a-tetrahydro-1H-isoindole-1,3(2H)-dione hydrochloride] | 54 | 0.00126 | 165 to 166 | 8.48 | >151 | < 6.30 | 0.001 | 0.0676 | 
Cl.O=C1C2CC=CCC2C(=O)N1CCCN1CCN(c2ccccc2F)CC1 (stereo not shown) [Compound 06, 2-[3-{4-(2-Fluorophenyl)piperazin-1-yl}propyl]-3a,4,7,7a-tetrahydro-1H-isoindole-1,3(2H)-dione hydrochloride] |  |  | 203 to 204 | 7.44 | 13 | 6.33 |  |  | 
COc1ccc(N2CCN(CCCN3C(=O)C4CC=CCC4C3=O)CC2)c(OC)c1.Cl (stereo not shown) [Compound 21, 2-[3-{4-(2,4-Dimethoxyphenyl)piperazin-1-yl}propyl]-3a,4,7,7a-tetrahydro-1H-isoindole-1,3(2H)-dione hydrochloride] |  |  | 226 to 227 | < 6.30 | 1 | < 6.30 |  |  | 
COc1cc(F)ccc1N1CCN(CCCN2C(=O)C3CC=CCC3C2=O)CC1.Cl (stereo not shown) [Compound 18, 2-[3-{4-(4-Fluoro-2-methoxyphenyl)piperazin-1-yl}propyl]-3a,4,7,7a-tetrahydro-1H-isoindole-1,3(2H)-dione hydrochloride] |  |  | 232 to 233 | 8.00 | 27 | 6.57 |  |  | 

Continued, values first:

Selectivity α1A/α1B [1, 6] | Kb [1] [µM] | melting point [°C] | pKi [2] | Selectivity α1B/α1A [2] | pKi [3] | Kb [4] [µM] | Kb [5] [µM] | Selectivity α1A/α1D [1, 6] | Structure (SMILES)
3.4 | 0.00117 | 163 to 165 | 9.47 | 85 | 7.54 | 0.000891 | 0.00398 |  | COc1ccc(F)cc1N1CCN(CCCN2C(=O)C3CC=CCC3C2=O)CC1.Cl (stereo not shown) [Compound 08, 2-[3-{4-(2-Methoxy-5-fluorophenyl)piperazin-1-yl}propyl]-3a,4,7,7a-tetrahydro-1H-isoindole-1,3(2H)-dione hydrochloride]
 | 0.00501 | 246 to 248 | 8.68 | 110 | 6.63 | 0.0162 |  | 3.24 | CCOc1ccccc1N1CCN(C(C)CCN2C(=O)C3CC=CCC3C2=O)CC1.Cl (stereo not shown) [Compound 31, 2-[3-{4-(2-Ethoxyphenyl)piperazin-1-yl}-3-methylpropyl]-3a,4,7,7a-tetrahydro-1H-isoindole-1,3(2H)-dione hydrochloride]
 |  | 210 to 211 | 7.33 | 11 | < 6.30 |  |  |  | Cl.O=C1C2CC=CCC2C(=O)N1CCCN1CCN(c2ccc(Cl)cc2Cl)CC1 (stereo not shown) [Compound 20, 2-[3-{4-(2,4-Dichlorophenyl)piperazin-1-yl}propyl]-3a,4,7,7a-tetrahydro-1H-isoindole-1,3(2H)-dione hydrochloride]
 |  | 263 to 265 | < 6.30 | 1 | < 6.30 |  |  |  | Cl.O=C1C2CC=CCC2C(=O)N1CCCN1CCN(CC=Cc2ccccc2)CC1 (stereo not shown) [Compound 15, 2-[3-{4-(Cinnamyl)piperazin-1-yl}propyl]-3a,4,7,7a-tetrahydro-1H-isoindole-1,3(2H)-dione hydrochloride]
 |  | 223 to 224 | 6.68 | 2.4 | < 6.30 |  |  |  | Cc1cccc(C)c1N1CCN(CCCN2C(=O)C3CC=CCC3C2=O)CC1.Cl (stereo not shown) [Compound 22, 2-[3-{4-(2,6-Dimethylphenyl)piperazin-1-yl}propyl]-3a,4,7,7a-tetrahydro-1H-isoindole-1,3(2H)-dione hydrochloride]
